Measurements taken from patent US9102648B1, “Bioavailable diacylhydrazine ligands for modulating the expression of exogenous genes via an ecdysone receptor complex” (Intrexon Corporation, priority 2003, dated 2015).
Read-outs that look alike come from different tables or passages of the source.

How the values were obtained:
[1] = molecular target: GAL4 DBD (1-147)-CfEcR(DEF)/VP16AD-βRXREF-LmUSPEF (Choristoneura fumiferana, UniProt O77240); assay: cell-based; conditions: for Fold Induction, 27-63 Assay, 3.3 uM: 3.3 uM ligand; for Fold Induction, 27-63 Assay, 3.3 uM / Fold Induction, 27-63 Assay, 33 uM: RLU ligand treated / RLU DMSO treated cells; for Fold Induction, 27-63 Assay, 33 uM: 33 uM ligand; for 27-63 assay Rel Max FI: maximum fold induction at any concentration relative to that of GS-E ligand, CHO 27-63 cells; for fold induction at 3.3 µM: read-out: Fold Induction, 27-63 Assay, 3.3 uM; for fold induction at 33 µM: read-out: Fold Induction, 27-63 Assay, 33 uM
[2] = molecular target: GAL4 DBD-CfEcR(DEF)/VP16AD-MmRXRE (Choristoneura fumiferana, UniProt O77240); assay: 13B3 Assay (CHO stable cell line, luciferase reporter); conditions: for Fold Induction, 13B3 Assay, 3.3 uM: 3.3 uM ligand; for Fold Induction, 13B3 Assay, 3.3 uM / Fold Induction, 13B3 Assay, 33 uM: RLU ligand treated / RLU DMSO treated cells; for Fold Induction, 13B3 Assay, 33 uM: 33 uM ligand; for 13B3 assay Rel Max FI: maximum fold induction at any concentration relative to that of GS-E ligand, CHO 13B3 cells; for fold induction at 3.3 µM: read-out: Fold Induction, 13B3 Assay, 3.3 uM; for fold induction at 33 µM: read-out: Fold Induction, 13B3 Assay, 33 uM
Summary of the method: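 Ligands dosed at 8 levels from 33 to 0.01 μM (DMSO stocks diluted 300-fold) onto the 13B3 CHO line carrying GAL4-DBD/CfEcR-DEF, VP16/MmRXR-DE and a GAL4-responsive luciferase gene.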

[3] = read-out: 27-63 assay EC50, CHO 27-63 stable cell line, luciferase reporter, average of two wells
[4] = read-out: 13B3 EC50, CHO 13B3 stable cell line, luciferase reporter, 48 h, average of two wells

| SMILES | Fold Induction, 27-63 Assay, 3.3 uM ([1]; average of two wells) | Fold Induction, 27-63 Assay, 33 uM ([1]; average of two wells) | 27-63 assay Rel Max FI [1] | EC50 [1, 3] [nM] | Fold Induction, 13B3 Assay, 3.3 uM ([2]; average of two wells) | Fold Induction, 13B3 Assay, 33 uM ([2]; average of two wells) | 13B3 assay Rel Max FI [2] | EC50 [2, 4] [nM] | EC50 [1] [nM] | fold induction at 3.3 µM [1] | fold induction at 33 µM [1] | EC50 [2] [nM] | fold induction at 3.3 µM [2] | fold induction at 33 µM [2] |
| --- | --- | --- | --- | --- | --- | --- | --- | --- | --- | --- | --- | --- | --- | --- |
| CCc1c(C(=O)NN(C(=O)c2cc(F)ccc2F)C(C)(C)C)ccc2c1OCCO2 [RG-115508] | 1195 | 969 | 0.719 | 1030 | 310 | 191 | 0.805 | 849 |  |  |  |  |  |  |
| CCc1c(C(=O)NN(C(=O)c2ccccc2OC)C(C)(C)C)ccc2c1OCOC2 [RG-115065] | 859 | 1095 | 0.746 | 3000 |  | 880 |  |  |  |  |  |  |  |  |
| CCc1c(OC)cccc1C(=O)NN(C(=O)c1cc(C)cc(C)c1)C(C)(C)CO [RG-115143] | 59 | 1736 | 1.112 | 7780 | 1 | 2032 | 0.651 | > 50000 |  |  |  |  |  |  |
| COc1ccc(C)cc1C(=O)N(NC(=O)c1cccc(OC)c1C)C(C)(C)C [RG-100766] | 931 | 1993 | 0.944 | 3420 |  | 391 |  |  |  |  |  |  |  |  |
| Cc1c(C(=O)NN(C(=O)c2ccc(F)cc2)C(C)(C)C)ccc2c1OCO2 [RG-100448] | 66 | 847 | 0.609 | 5290 |  | 2 |  |  |  |  |  |  |  |  |
| CCOC(=O)C(C)(C)N(NC(=O)c1cccc(OC)c1CC)C(=O)c1cc(C)cc(C)c1 [RG-115025, 2-[N-(3,5-dimethyl-benzoyl)-N′-(2-ethyl-3-methoxy-benzoyl)-hydrazino]-2-methyl-propionic acid ethyl ester] |  |  | 1.523 |  |  |  | 0.186 |  | 2450 | 2290 | 2240 | 39300 | 8 | 1700 |
| CCc1c(C(=O)NN(C(=O)c2ccccc2OC)C(C)(C)C)ccc2c1OCCO2 [RG-115244] | 2203 | 1847 | 0.785 | 169 | 2404 | 573 | 0.663 | 369 |  |  |  |  |  |  |
| Cc1c(C(=O)NN(C(=O)c2cc(F)c(F)c(F)c2F)C(C)(C)C)ccc2c1CCCO2 [RG-115518] | 1640 | 1126 | 0.866 | 1050 | 1644 | 926 | 0.648 | 1250 |  |  |  |  |  |  |
| CCc1c(C(=O)NN(C(=O)c2cc(C)cc(Cl)c2)C(C)(C)C)ccc2c1OCCO2 [RG-101494, N-(5-ethyl-1,4-benzodioxan-6-carbonyl)-N′-(tert-butyl)-N′-(3-chloro-5-methylbenzoyl)hydrazine] |  |  | 0.916 |  |  |  | 0.822 |  | 36 | 717 | 294 | 148 | 755 | 613 |
| CCc1c(OC)cccc1C(=O)NN(C(=O)c1cc(C)cc(COC(C)=O)c1)C(C)(C)C [RG-115223] | 273 | 1935 | 1.167 | 4680 | 8 | 3437 | 1.346 | > 50000 |  |  |  |  |  |  |
| CCc1c(OC)cccc1C(=O)NN(C(=O)c1ccc(Cl)cc1[N+](=O)[O-])C(C)(C)C [RG-115647] | 817 | 815 | 0.505 | 372 | 2169 | 98 | 0.662 | 832 |  |  |  |  |  |  |
| CCc1c(C(=O)NN(C(=O)c2ccc(F)c(F)c2F)C(C)(C)C)ccc2c1OCCO2 [RG-115580] | 1104 | 1031 | 0.760 | 375 |  | 298 |  |  |  |  |  |  |  |  |
| CCc1c(OC)cccc1C(=O)NN(C(=O)c1cc(C)cc(C)c1)C(C)(C)C=NCCO [RG-115511] | 1 | 1155 | 0.74 | 12000 | 1 | 98 | 0.07 | > 50000 |  |  |  |  |  |  |
